Data published in paper PMC3629081, “Tetrahydropyrazolo[1,5-a]Pyrimidine-3-Carboxamide and N-Benzyl-6′,7′-Dihydrospiro[Piperidine-4,4′-Thieno[3,2-c]Pyran] Analogues with Bactericidal Efficacy against Mycobacterium tuberculosis Targeting MmpL3” (PLoS ONE, 2013).
≈ marks a conversion by molar mass, not a printed value. Where “and” joins values, the source holds several entries; their conditions need not be identical. Equal entries are not always repeated. Where two headings read alike, the source gives them in different places. Marks after values point to notes of the source that are not given here.

What was measured:
M. tuberculosis H37Rv [1] = test: MIC determination against M. tuberculosis H37Rv (resazurin); assay type: cell-based, Mycobacterium tuberculosis
[2] = system: clinical M. tuberculosis isolates; test: MIC against clinical strains (BACTEC MGIT 960); assay type: cell-based, Mycobacterium tuberculosis; conditions: for MIC90: Mycobacterium tuberculosis, read-out: M. tuberculosis MIC90 (108 strains)
[3] = system: GFP expressing M. tuberculosis H37Rv in Raw264.7 macrophages; test: microbe, parasite or virus in culture; assay type: cell-based, Mycobacterium tuberculosis; conditions: read-out: Intracell. H37Rv MIC80
[4] = system: panel of Gram-positive and Gram-negative organisms; test: General antimicrobial activity assay (broth microdilution); assay type: cell-based; conditions: read-out: Antibacterial panel IC50
Method: Whole-cell antimicrobial activity was determined by broth microdilution using the Clinical and Laboratory Standards Institute (CLSI) recommended procedure, Document M7-A7, “Methods for Dilution Susceptibility Tests for Bacteria that Grow Aerobically”. Some compounds have been evaluated against a panel of Gram-positive and Gram-negative organisms, including Enterococcus faecium, Enterococcus faecalis, Haemophilus influenzae, Moraxella catarrhalis, Streptococcus pneumoniae, Escherichia coli and Streptococcus pyogenes. The MIC was determined as the lowest concentration of compound producing a >80 % reduction in fluorescence observed.

HepG2 cells = assay type: cell-based, human; conditions: for HepG2 Tox50: 48 h incubation
Method: Cytotoxicity assay was performed measuring the viability of immortalized human cell line culture (HepG2) after 48 h of incubation with a full curve concentration of the test substances in culture medium. For read out of viability of cells we used Resazurine (BDH®). Resazurin is used as an oxidation-reduction indicator that yields a colorimetric change and a fluorescent signal in response to metabolic activity. As cell grow, metabolic activity results in a chemical reduction of Resazurin indicated by a change from non-fluorescent blue to the reduced fluorescent pink form. The degree of Resazurin fluorescence is therefore, an indicator of the number of viable cells in the culture system. The cytotoxicity results were expressed as Tox50 values (IC50). This was done by calculating the concentration of test compounds that would result in a decrease in Resazurin reduction equivalent to 50% of the concurrent control values. The protocol we followed is described below briefly.
Cell line HepG2 (HB-8065) were cultured with fresh medium (Essential Minimum Eagle Medium, EMEM, supplemented with 5% fetal calf serum and 2 mM L-glutamine) the day before subculturing the plates. On the day of the assay, cells (10,000 cells/well) were seeded in a black 96-well collagen coated microplate with clear bottom, (Becton Dickinson®) except in column 11, that was dispensed only 100 μL of culture medium.
Stock solution from each test substances was prepared in 100% DMSO. Ten serial 1∶2 dilutions were prepared of each test compound and, finally, a 1∶200 dilution was made, in medium, to achieve a final concentration of 0.5% of DMSO. Resazurin tablets (Merck®) were dissolved in phosphate buffer saline at a concentration of 0.0042%.
After 24 h of incubation of the cells (37°C, 5% CO2, 95% relative humidity), a volume of 150 μL of culture medium containing the appropriate test concentrations of the compounds dilutions were added to cells in two replicates. In column 12, only 150 μL of 0.5% DMSO was added (blank control). Then, cells were exposed to test compounds for 48 h. After that, medium was removed and Resazurin solution was added to each well and incubated for further 1.5 h. Fluorescence was measured at an excitation wavelength of 515 nm and an emission wavelength of 590 nm in a Microplate reader 1420 Multilabel HTS counter, Victor 2, (Wallac®) The fluorescence value of each well is corrected by subtracting the background value (average of column 11) from the absolute value. The percentages of inhibition are calculated relatively to the DMSO control wells (average of column 12). For each compound, the average value of the duplicate samples is calculated. Data were processed using an Excel spreadsheet and GraphPad Software analysis. Tox50 values were calculated from the Sigmoidal dose-response (variable slope) curves by nonlinear regression analysis.

[5] = assay type: in vitro ADME, mouse
Method: (§1) Pooled mouse, rat, dog and human liver microsomes were purchased from Xenotech. Microsomes (final protein concentration 0.5 mg/ml, MgCl2 (final concentration 5 mM) and test compound (final substrate concentration 0.5 µM; final DMSO concentration 0.5 %) in 0.1 M phosphate buffer pH 7.4 were pre-incubated at 37°C prior to the addition of NADPH (final concentration 1 mM) to initiate the reaction. The final incubation volume was 600 µl. Control incubation was included for each compound tested where 0.1 M phosphate buffer pH 7.4 was added instead of NADPH (minus NADPH). One control compound was included with each species. All incubations were performed singularly for each test compound. Each compound was incubated for 30 minutes and samples (90 µl) of incubate were taken at 0, 5, 10, 20 and 30 minutes. The control (minus NADPH) was sampled at 0 and 30 minutes only. The reactions were stopped by the addition of sample to 200 µl of acetonitrile:methanol (3∶1) containing an internal standard. The terminated samples were centrifuged at 3700 rpm for 15 minutes at 4°C to precipitate the protein. Quantitative analysis: following protein precipitation, the samples were analyzed using specific LC-MS/MS conditions. Data analysis: from a plot of ln peak area ratio (compound peak area/internal standard peak area) against time, the gradient of the line was determined. Subsequently, half-life and intrinsic clearance were calculated using the equations below:
(§2) Elimination rate constant (k) = (-gradient) Half life [drawing 1]
(§3) Intrinsic Clearance (CLint) (ml/min/g protein) = [drawing 2] where V = Incubation volume ml/g microsomal protein.

[6] = assay type: in vitro ADME, human; conditions: for Cli human: human microsomes
Method: as §1, §2, §3

M. tuberculosis = test: Killing kinetics assay; assay type: cell-based, Mycobacterium tuberculosis; conditions: for reduction of cfu counts after one week of treatment: 20x MIC; for in vitro killing behaviour: kill rate over 7 days
M. bovis BCG = assay type: cell-based, Mycobacterium bovis BCG
[7] = in words
in vivo = test: in vivo; parameters: species or system mice
Method: Figure 5 Whole blood pharmacokinetic profile and main parameters of compounds 3 and 4. Compounds were given orally at 50 mg/Kg suspension in 1% aqueous methylcellulose. Main pharmacokinetic parameters were established after non-compartimental analysis. AUC: Area Under the Curve; Cmax: Maximum concentration observed in whole blood; %F: percentage bioavailability. TEXT PRINTED IN THE PICTURE: 3: Tmax (h): 3.0 ± 2.8 (Dose (mg/kg): 50); Cmax (μg/ml): 1.8 ± 0.5 (Dose (mg/kg): 50); AUC0-24h (μg*h/ml): 26.2 ± 9.4 (Dose (mg/kg): 50); DNAUC0-24h (μg*h/ml per mg/kg): 0.6 ± 0.2 (Dose (mg/kg): 50); %F: 96.1 ± 32.2 (Dose (mg/kg): 50) | 4: Tmax (h): 0.7 ± 0.1 (Dose (mg/kg): 50); Cmax (μg/ml): 1.3 ± 0.2 (Dose (mg/kg): 50); AUC0-24h (μg*h/ml): 8.7 ± 0.6 (Dose (mg/kg): 50); DNAUC0-24h (μg*h/ml per mg/kg): 0.20 ± 0.01 (Dose (mg/kg): 50); %F: 54.6 ± 5.4 (Dose (mg/kg): 50)
Experimental compounds were administered by oral gavage at 50 mg/kg single dose at a volume of 20 ml/kg to n = 5 mice. All mice received treatment in the fed state. Peripheral total blood was the compartment chosen for the establishment of compound concentrations: 25 μl of blood was taken from the lateral tail vein for each mouse at 15, 30 and 45 minutes, 1, 2, 4, 8 and 24 hours. LC-MS was used as the analytical method of choice for the establishment of compound concentration in blood with a sensitivity of LLQ = 1–5 ng/ml in 25 µl blood. The non-compartmental data analysis (NCA) was performed with WinNonlin Phoenix 6.3 (Pharsight, Certara L.P) and supplementary analysis was performed with GraphPad Prism 5 (GraphPad Software, Inc).

M. tuberculosis H37Rv [8] = test: In vivo efficacy in acute TB murine model; parameters: species or system Mycobacterium tuberculosis
[9] = Sensitive phenotype, 60 strains
[10] = monoR H (Isoniazid), 20 strains
[11] = monoR Rf (Rifampicin), 3 strains
[12] = monoR Sm (Streptomycin), 11 strains
[13] = Mycobacterium tuberculosis, H37RV

Row | SMILES | MIC (M. tuberculosis H37Rv [1]; Mycobacterium tuberculosis) | Range of MIC's [2] | MIC90 [2] | Range of MIC's [2, 9] | Range of MIC's [2, 10] | Range of MIC's [2, 11] | Range of MIC's [2, 12] | MIC80 [3, 13] | IC50 [4] | HepG2 Tox50 (HepG2 cells) | Cli mouse ([5]; mouse microsomes) | Cli human [6] | reduction of cfu counts after one week of treatment (M. tuberculosis) | in vitro killing behaviour (M. tuberculosis) | effect on TMM in [14C]-labelled cultures (M. bovis BCG) | effect on other classes of lipids, in particular phospholipids (M. bovis BCG) | solubility (physchem) | further results
1 | CCc1ccc([C@H]2C[C@@H](C(F)(F)F)n3ncc(C(=O)NCc4ccc(OC)cc4)c3N2)cc1 [Compound 1, (5R,7S)-5-(4-ethylphenyl)-N-(4-methoxybenzyl)-7-(trifluoromethyl)-4,5,6,7-tetrahydropyrazolo[1,5-a]pyrimidine-3-carboxamide] | 0.3 µM (≈ 0.138 µg/mL) | 0.16 to 2.5 µM and 0.3 to 5 µM | 0.6 µM (≈ 0.275 µg/mL) | 0.16 to 0.6 µM | 0.16 to 0.6 µM | 0.16 to 0.3 µM | 0.16 to 0.6 µM | 0.16 µM (≈ 0.0734 µg/mL) | ≥ 32 µM | >25 ^* µM | 0.69 mL/min/g | 0.29 mL/min/g | > 3 log cfu | bactericidal | accumulation of TMM | unaffected | 5 µM (≈ 2.29 µg/mL) | signs of cytotoxicity at the maximum concentration tested (HepG2 cells; maximum concentration where compound was in solution): did not show initial signs of cytotoxicity; solubility in different media [7]: very low solubility
2 | CCc1ccc([C@H]2C[C@@H](C(F)(F)F)n3ncc(C(=O)NCc4ccc5c(c4)OCO5)c3N2)cc1 [Compound 3] | < 0.5 µM | – | – | – | – | – | – | – | – | > 25 µM | 0.8 mL/min/g | – | – | – | – | – | – | MIC (M. tuberculosis H37Rv [1]): 0.16 µM (≈ 0.0756 µg/mL); MIC80 [3]: 0.31 µM (≈ 0.146 µg/mL); DNAUC0-24h (in vivo; mice, oral 50 mg/kg, whole blood): 0.6 ± 0.2 μg*h/ml per mg/kg; AUC(0-t) (in vivo; mouse, in vivo, po, 50 mg/kg, mice, oral 50 mg/kg, whole blood, read-out: AUC0-24h): 26200 ± 9400 ng·h/mL; AUC(0-t) (in vivo; mouse, in vivo, po, 50 mg/kg, po 50 mg/kg (Figure 4), read-out: AUC 24h): 26500 ng·h/mL; AUC (in vivo; mouse, in vivo, po, 50 mg/kg, minimum requirement fulfilled, read-out: AUC after oral administration 50 mg/kg): > 1000 ng·h/mL; bioavailability (in vivo; mouse, in vivo, mice, oral 50 mg/kg, whole blood, read-out: %F): 96.1 ± 32.2%; Cmax (in vivo; mouse, in vivo, mice, oral 50 mg/kg, whole blood, read-out: Cmax): 1800 ± 500 ng/mL; Tmax (in vivo; mouse, in vivo, mice, oral 50 mg/kg, whole blood, read-out: Tmax): 3 ± 2.8 h; reduction in lung bacterial load (M. tuberculosis H37Rv [8]; 100 mg/kg orally once a day, day 1 to day 8, B6 mice): 1.5 log units; reduction in lung bacterial load (M. tuberculosis H37Rv [8]; 300 mg/kg orally once a day, day 1 to day 8, B6 mice): 2.2 log units
3 | c1cc2c(s1)CCOC21CCN(Cc2ccc3c(c2)OCCO3)CC1 [Compound 2] | 0.3 µM (≈ 0.107 µg/mL) | 0.3 to 1.25 µM | 0.6 µM (≈ 0.214 µg/mL) | 0.3 to 1.25 µM | 0.3 to 10 µM | 0.6 to 10 µM | 0.3 to 10 µM | 0.63 µM (≈ 0.225 µg/mL) | ≥ 16 µM | 36 µM | >30 mL/min/g | 25 mL/min/g | > 3 log cfu | bactericidal | accumulation of TMM | unaffected | 266 µM (≈ 95.1 µg/mL) | intrinsic clearance values in mice microsomes ([5]; in words): poor; intrinsic clearance values in human microsomes ([6]; in words): poor
4 | Cl.FC(F)(F)Oc1ccc(Oc2ccc(CN3CCC4(CC3)OCCc3sccc34)cc2)cc1 [Compound 4] | – | – | – | – | – | – | – | – | – | 36 µM | – | – | – | – | – | – | – | Cli mouse ([5]; mouse, pH 7.4): 1.2 mL/min/g; AUC (in vivo; mouse, in vivo, po, 50 mg/kg): > 1000 ng·h/mL; Cmax (in vivo; mouse, in vivo, po, 50 mg/kg): 1300 ± 200 ng/mL; DNAUC0-24h (in vivo; mouse, in vivo, po, 50 mg/kg): 0.20 ± 0.01 μg*h/ml per mg/kg; Tmax (in vivo; mouse, in vivo, po, 50 mg/kg): 0.7 ± 0.1 h; bioavailability (in vivo; mouse, in vivo, po, 50 mg/kg): 54.6 ± 5.4%; AUC(0-t) (in vivo; mouse, in vivo, po, 50 mg/kg, AUC0-24h): 8700 ± 600 ng·h/mL; AUC(0-t) (in vivo; mouse, in vivo, po, 50 mg/kg, AUC 24h): 8700 ng·h/mL; reduction in lung bacterial load (M. tuberculosis H37Rv [8]; in vivo): 2.3 log units and 2.7 log units
